# Assay results as given in patent US20050209157A1, “Short bioactive peptides and methods for their use” (priority 2001, published 2005).
# No end group written: not given here.
# Tests used:
# [1] = system: Pseudomonas aeruginosa ATCC 27853; experiment: Antimicrobial assay I, modified protocol (tryptic soy broth), MBC; conditions: minimum bactericidal concentration, Table 4
# [2] = system: Stapholococcus aureus ATCC 25923; experiment: as above; conditions: minimum bactericidal concentration, Table 4
# [3] = system: Escherichia coli ATCC 25922; experiment: as above; conditions: minimum bactericidal concentration, Table 4
# [4] = system: Pseudomonas aeruginosa ATCC 9027; experiment: Antimicrobial assay I, MIC by OD measurement; assay type: cell-based; conditions: 37° C. for 24 hours, absorbance 620 nm
# Excerpt: (§1) The data for the following antimicrobial assay of the peptides have been obtained by making OD measurements in in vitro cell culture experiments with and without added peptide. The protocol used is as follows.
# (§2) Cell lines included Staphylococcus aureus ATCC 6538 or 25923, Pseudomonas aeruginosa ATCC 9027 or 27853. Medium used were Antibiotic Medium 3 (Difco), Antibiotic Medium 2 (Difco), and 0.85% saline. Controls used were physiological saline, and gentamycin at 50, 25, 10, 5, 1, and 0.1 ppm.
# (§3) Absorbance was read at 620 nm after shaking to resuspend cells.
# (§4) Staph6538 is Staphylococcus aureus ATCC accession number 6538; paerug9027 is Pseudomonas aeruginosa ATCC accession number 9027, yeast is Saccharomyces cerevisiae.
# [5] = system: Staphylococcus aureus ATCC 6538; experiment: Antimicrobial assay I, MIC by OD measurement; assay type: cell-based; conditions: 37° C. for 24 hours, absorbance 620 nm
# Excerpt: as §1, §2, §3, §4
# in vitro [6] = conditions: human, WI38 normal lung fibroblast cells, LD50 WI38, WI38 normal lung fibroblast line, MTT, 24 hours with peptide
# in vitro [7] = assay type: cell-based, human; conditions: human, human red blood cells, pH 7, hemolytic assay, concentration at 50% hemolysis, 1 hour at 37° C.; read-out: LD50
# Method: This hemolytic assay is based upon that presented in Journal of Peptide Research 53: 82-90 (1999). […] All procedures were performed according to safety protocols pertaining to the handling and disposal of human body fluids.
# Red blood cells (RBCs) were washed three times with PBS (35 mM phosphate buffer 0.15 M NaCl, pH 7.0). RBCs suspended in PBS (0.4% (v/v); about 10 ml per 15 peptides) were prepared. Suspensions (100 μl) were aliquoted to each sample and control tube. Serially diluted peptide solutions (100 μl) were pipetted into the sample tubes. Negative control tubes contained 100 μl PBS; positive control tubes contained 100 μl 1% Triton-X100 detergent. All tubes were incubated for 1 hour at 37° C. The tubes were removed from the incubator and centrifuged at 1000 g for 5 minutes. Supernatant (100 μl) was pipetted to a 96-well polyvinyl chloride plate. The absorbance at 414 nm (A414) was measured, and used to calculate the percent hemolysis according to the following formula. [formula]
# WI38 = conditions: MTT, 24 hours with peptide; normal fibroblast line
# [8] = system: yeast (Saccharomyces cerevisiae); experiment: Antimicrobial assay I, yeast assay in RPMI 1640; assay type: cell-based; conditions: RPMI 1640 media
# Method: as §1, §3
# The yeast assay was performed in RPMI 1640 media (pH 7.0 at 25° C.).
# as §4
# HeLaS3 = experiment: Anti-cancer assay, MTT, LD50; assay type: cell-based; conditions: 24 hours with peptide, cervical carcinoma
# Excerpt: (§5) Numbers are LD50 values (μg/mL).
# MCF7 = experiment: Anti-cancer assay, MTT, LD50; assay type: cell-based; conditions: MCF7 breast adenocarcinoma line, MTT, 24 hours with peptide
# Excerpt: as §5
# BMKC = experiment: Anti-cancer assay, MTT, LD50; assay type: cell-based; conditions: BMKC cloned melanoma line, 24 hours with peptide
# Excerpt: as §5
# PC3 = experiment: Anti-cancer assay, MTT, LD50; assay type: cell-based; conditions: 24 hours with peptide, prostate adenocarcinoma
# Excerpt: as §5
# H1299 = experiment: Anti-cancer assay, MTT, LD50; assay type: cell-based; conditions: 24 hours with peptide, lung large cell carcinoma
# Excerpt: as §5
# SW480 = experiment: Anti-cancer assay, MTT, LD50; assay type: cell-based; conditions: SW480 colon adenocarcinoma line, 24 hours with peptide
# Excerpt: as §5
# P. aeruginosa H374 = assay type: cell-based, Pseudomonas aeruginosa
# Method: The synergistic effects of the inventive peptides with either chloramphenicol or nalidixic acid against efflux mutants of Pseudomonas aeruginosa were investigated. The MIC values were determined for either nalidixic acid or chloramphenicol alone as baselines. Peptides were added at their ¼ MIC concentration, and the concentration of either nalidixic acid or chloramphenicol to arrive at the MIC was determined. […] The fractional inhibitory concentration (FIC) index was used to determine synergy between peptides and antibiotics. Two-fold serial dilutions of antibiotic were tested in the presence of a constant amount of peptide, equal to one quarter of peptide MIC. The FIC index was determined as follows: FIC=0.25+MICantibiotic in combination/MICantibiotic alone. An FIC index of 0.5 or less is considered as synergy.
Compound,MBC P. aerug A.27853 [1],MBC S. aur A.25923 [2],MBC E. coli A.25922 [3],paerug9027 (MIC) [4],staph6538 (MIC) [5],CC50 at 24 h (in vitro [6]),HC50 at 1 h (in vitro [7]),WI38 LD50 (WI38),yeast (MIC or MFC) [8],HeLaS3 LD50 (HeLaS3),LD50 MCF7 (MCF7),LD50 BMKC (BMKC),PC3 LD50 (PC3),H1299 LD50 (H1299),LD50 SW480 (SW480),MIC Cm-comb. (P. aeruginosa H374; MIC of chloramphenicol with peptide at ¼ MIC),"FIC Index (P. aeruginosa H374; chloramphenicol + peptide at ¼ MIC, 0.5 or less = synergy)"
CC(C)C[C@H](NC(=O)[C@H](C)NC(=O)[C@H](CCCCN)NC(=O)[C@H](CCCCN)NC(=O)[C@H](C)NC(=O)[C@H](CCCCN)NC(=O)[C@H](CCCCN)NC(=O)[C@H](CC(C)C)NC(=O)[C@H](C)NC(=O)[C@H](CCCCN)NC(=O)[C@H](CCCCN)NC(=O)[C@H](C)NC(=O)[C@H](CC(C)C)NC(=O)[C@H](C)NC(=O)[C@@H](N)Cc1ccccc1)C(N)=O [compound 40],40 µg/mL,>40 µg/mL,30 µg/mL,–,–,–,–,–,–,–,–,–,–,–,–,–,–
FAKLWAKLAFGKGIGKVGKKLL-NH2 [P135],–,–,–,10 µg/mL,15 µg/mL,110 µg/mL,900 µg/mL,110 µg/mL,50 µg/mL,215 µg/mL,54 µg/mL,155 µg/mL,310 µg/mL,115 µg/mL,80 µg/mL,–,–
KWKLFKKALKKLKKALKKAL-NH2 [P104],–,–,–,10 µg/mL,10 µg/mL,24 µg/mL,70 µg/mL,24 µg/mL,200 µg/mL,130 µg/mL,11 µg/mL,100 µg/mL,18 µg/mL,52 µg/mL,54 µg/mL,–,–
"FALALKALKKAL-NH2 [P144, FALALKALKKAL-NH2]",–,–,–,50 µg/mL,5 µg/mL,750 µg/mL,600 µg/mL,750 µg/mL,50 µg/mL,275 µg/mL,150 µg/mL,250 µg/mL,350 µg/mL,225 µg/mL,285 µg/mL,–,–
"FALALKLAKKAL-NH2 [P167, FALALKLAKKAL-NH2]",–,–,–,25 µg/mL,10 µg/mL,260 µg/mL,200 µg/mL,260 µg/mL,100 µg/mL,325 µg/mL,230 µg/mL,240 µg/mL,320 µg/mL,300 µg/mL,360 µg/mL,–,–
FAKLLAKLAK-NH2 [P123],–,–,–,200 µg/mL,50 µg/mL,600 µg/mL,1000 µg/mL,600 µg/mL,100 µg/mL,940 µg/mL,615 µg/mL,635 µg/mL,> (> indicates greater than 1000),> (> indicates greater than 1000),> (> indicates greater than 1000),–,–
"CC(C)C[C@H](NC(=O)[C@H](C)NC(=O)[C@H](CCCCN)NC(=O)[C@H](CC(C)C)NC(=O)[C@H](C)NC(=O)[C@H](CC(C)C)NC(=O)[C@H](C)NC(=O)[C@H](CCCCN)NC(=O)[C@H](CC(C)C)NC(=O)[C@H](C)NC(=O)[C@H](CC(C)C)NC(=O)[C@H](C)NC(=O)[C@H](CC(C)C)NC(=O)[C@H](CCCCN)NC(=O)[C@H](C)NC(=O)[C@H](CC(C)C)NC(=O)[C@H](CCCCN)NC(=O)[C@H](CCCCN)NC(=O)[C@H](C)NC(=O)[C@H](CC(C)C)NC(=O)[C@H](CCCCN)NC(=O)[C@H](CCCCN)NC(=O)[C@H](CC(C)C)NC(=O)[C@H](CCCCN)NC(=O)[C@H](CCCCN)NC(=O)[C@H](C)NC(=O)[C@H](CC(C)C)NC(=O)[C@H](CCCCN)NC(=O)[C@H](CCCCN)NC(=O)[C@H](C)NC(=O)[C@@H](N)Cc1ccccc1)C(N)=O [P98, reference compound]",–,–,–,> (> indicates greater than 200 μg/mL),> (> indicates greater than 200 μg/mL),47 µg/mL,60 µg/mL,47 µg/mL,> (> indicates greater than 200 μg/mL),175 µg/mL,96 µg/mL,94 µg/mL,52 µg/mL,53 µg/mL,125 µg/mL,–,–
FAKLLAKFLKKAL-NH2 [P113],–,–,–,200 µg/mL,10 µg/mL,170 µg/mL,1000 µg/mL,170 µg/mL,200 µg/mL,190 µg/mL,150 µg/mL,115 µg/mL,240 µg/mL,50 µg/mL,180 µg/mL,16 µg/mL,1.25
VAKLLAKLAKKVL-NH2 [P154],–,–,–,100 µg/mL,100 µg/mL,600 µg/mL,450 µg/mL,600 µg/mL,50 µg/mL,> (> indicates greater than 1000),315 µg/mL,330 µg/mL,640 µg/mL,400 µg/mL,750 µg/mL,–,–
FKRLAKIKVLRLAKIKR-NH2 [P147],–,–,–,5 µg/mL,5 µg/mL,83 µg/mL,300 µg/mL,83 µg/mL,200 µg/mL,> (> indicates greater than 1000),106 µg/mL,110 µg/mL,340 µg/mL,93 µg/mL,185 µg/mL,–,–
"FAKKLAKLAKKLLAL-NH2 [P38, FAKKLAKLAKKLLAL-NH2]",–,–,–,50 µg/mL,5 µg/mL,12 µg/mL,350 µg/mL,12 µg/mL,50 µg/mL,35 µg/mL,17 µg/mL,21 µg/mL,10 µg/mL,33 µg/mL,13 µg/mL,–,–
"FALLKALKKAL-NH2 [P171, FALLKALKKAL-NH2]",–,–,–,50 µg/mL,25 µg/mL,615 µg/mL,550 µg/mL,615 µg/mL,100 µg/mL,820 µg/mL,305 µg/mL,600 µg/mL,600 µg/mL,540 µg/mL,770 µg/mL,–,–
